In patent US8153797B2, “Chromen-2-one derivatives and their use as monoamine neurotransmitter re-uptake inhibitors” (Neurosearch A/S, priority 2006, dated 2012):
pIC50: −log10 of the molar value. Where a name gives a salt, the structure may show the parent alone. Read-outs that look alike come from different tables or passages of the source.

Legend:
[1] = target: T1, reuptake of noradrenaline (NA) in synaptosomes (Rattus norvegicus, UniProt Q63380); assay: Inhibition of noradrenaline reuptake in synaptosomes; format: biochemical
T1 construct: in synaptosomes as described in WO 97/16451; from tissue; method in WO 97/16451
T1 sequence (Q63380 1-617): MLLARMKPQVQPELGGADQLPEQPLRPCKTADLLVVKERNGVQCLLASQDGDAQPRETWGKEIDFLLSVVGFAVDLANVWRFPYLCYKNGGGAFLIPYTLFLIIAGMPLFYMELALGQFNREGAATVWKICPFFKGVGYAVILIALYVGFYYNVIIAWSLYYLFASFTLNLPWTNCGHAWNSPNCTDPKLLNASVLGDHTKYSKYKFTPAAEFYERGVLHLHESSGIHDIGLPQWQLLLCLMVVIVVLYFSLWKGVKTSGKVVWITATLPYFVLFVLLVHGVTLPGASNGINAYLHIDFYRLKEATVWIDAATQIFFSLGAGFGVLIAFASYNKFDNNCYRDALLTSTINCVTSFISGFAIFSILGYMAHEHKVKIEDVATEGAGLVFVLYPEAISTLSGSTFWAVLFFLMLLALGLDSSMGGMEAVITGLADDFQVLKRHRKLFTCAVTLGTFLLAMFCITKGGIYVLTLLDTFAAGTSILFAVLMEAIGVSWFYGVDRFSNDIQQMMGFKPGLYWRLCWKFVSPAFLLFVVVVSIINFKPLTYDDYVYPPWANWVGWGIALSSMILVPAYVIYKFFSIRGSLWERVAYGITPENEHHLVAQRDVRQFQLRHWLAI

[2] = target: T2, reuptake of dopamine (DA) in synaptosomes (Rattus norvegicus, UniProt P23977); assay: Inhibition of dopamine reuptake in synaptosomes; format: biochemical
T2 construct: in synaptosomes as described in WO 97/16451; from tissue; method in WO 97/16451
T2 sequence (P23977 whole entry): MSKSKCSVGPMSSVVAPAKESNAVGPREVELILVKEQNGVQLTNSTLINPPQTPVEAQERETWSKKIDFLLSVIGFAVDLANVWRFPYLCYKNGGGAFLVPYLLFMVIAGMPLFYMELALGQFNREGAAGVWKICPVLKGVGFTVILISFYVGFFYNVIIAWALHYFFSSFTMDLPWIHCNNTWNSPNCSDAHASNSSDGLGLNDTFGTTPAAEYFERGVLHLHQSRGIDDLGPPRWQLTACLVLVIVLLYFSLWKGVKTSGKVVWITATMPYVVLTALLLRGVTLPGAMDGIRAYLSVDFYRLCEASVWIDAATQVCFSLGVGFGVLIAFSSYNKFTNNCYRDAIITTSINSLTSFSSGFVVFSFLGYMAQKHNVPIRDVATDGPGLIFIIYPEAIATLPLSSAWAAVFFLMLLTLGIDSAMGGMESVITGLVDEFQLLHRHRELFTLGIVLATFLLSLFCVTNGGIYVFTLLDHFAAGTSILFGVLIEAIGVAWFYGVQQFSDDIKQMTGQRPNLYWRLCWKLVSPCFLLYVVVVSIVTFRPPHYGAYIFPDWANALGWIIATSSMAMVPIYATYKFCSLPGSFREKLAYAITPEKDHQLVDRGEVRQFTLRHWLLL

[3] = target: T3, reuptake of serotonine (5-HT) in synaptosomes (Rattus norvegicus, UniProt P31652); assay: Inhibition of serotonin reuptake in synaptosomes; format: biochemical
T3 construct: in synaptosomes as described in WO 97/16451; from tissue; method in WO 97/16451
T3 sequence (P31652 whole entry): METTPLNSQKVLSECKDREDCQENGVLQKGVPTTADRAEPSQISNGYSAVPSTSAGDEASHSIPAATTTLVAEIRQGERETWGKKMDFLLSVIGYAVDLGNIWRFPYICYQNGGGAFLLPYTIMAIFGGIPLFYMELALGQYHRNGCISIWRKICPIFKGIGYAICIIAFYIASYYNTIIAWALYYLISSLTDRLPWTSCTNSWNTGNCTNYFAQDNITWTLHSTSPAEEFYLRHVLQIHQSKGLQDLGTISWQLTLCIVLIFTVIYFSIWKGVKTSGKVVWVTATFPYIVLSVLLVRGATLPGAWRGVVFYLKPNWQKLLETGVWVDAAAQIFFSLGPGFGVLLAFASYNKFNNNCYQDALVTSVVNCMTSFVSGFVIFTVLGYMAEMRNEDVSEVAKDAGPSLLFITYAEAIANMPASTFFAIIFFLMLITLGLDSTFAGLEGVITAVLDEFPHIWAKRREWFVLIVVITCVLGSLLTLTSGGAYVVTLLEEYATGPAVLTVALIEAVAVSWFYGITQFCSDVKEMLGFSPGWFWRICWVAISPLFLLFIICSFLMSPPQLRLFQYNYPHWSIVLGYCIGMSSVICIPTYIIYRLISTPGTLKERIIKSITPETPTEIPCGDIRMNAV
Procedure: A number of compounds were tested for their ability to inhibit the reuptake of the monoamine neurotransmitters dopamine (DA) noradrenaline (NA) and serotonine (5-HT) in synaptosomes as described in WO 97/16451.
The test values are given as IC50 (the concentration (μM) of the test substance which inhibits the specific binding of ^3H-DA, ^3H-NA, or ^3H-5-HT by 50%).

[4] = 3H-5-HT, synaptosomes, read-out: 5-HT-uptake IC50

Row | Compound | melting point | pIC50 ([1]; 3H-NA, synaptosomes, read-out: NA-uptake IC50) | pIC50 ([2]; 3H-DA, synaptosomes, read-out: DA-uptake IC50) | pIC50 [3, 4] | pIC50 [1] | pIC50 [2] | pIC50 [3]
1 | CN1[C@@H]2C=C[C@H]1C[C@H](Oc1ccc3ccc(=O)oc3c1)C2 (as salt: hydrochloric acid salt) [First compound of Method 4B, exo-7-(8-Methyl-8-aza-bicyclo[3.2.1]oct-6-en-3-yloxy)-chromen-2-one hydrochloric acid salt] | > 275 °C | – | – | – | – | – | –
2 | CN1[C@@H]2CC[C@H]1C[C@H](Oc1ccc3cc(Br)c(=O)oc3c1)C2 [First compound of Method 2B, exo-3-Bromo-7-(8-methyl-8-aza-bicyclo[3.2.1]oct-3-yloxy)-chromen-2-one hydrochloric acid salt] | – | 7.77 | 7.36 | 8.92 | – | – | –
3 | CN1[C@@H]2C=C[C@H]1C[C@H](Oc1ccc3ccc(=O)oc3c1)C2 [First compound of Method 4B, exo-7-(8-Methyl-8-aza-bicyclo[3.2.1]oct-6-en-3-yloxy)-chromen-2-one hydrochloric acid salt] | – | – | – | – | 6.14 | 6.15 | 7.44
4 | O=c1oc2cc(O[C@@H]3C[C@H]4CC[C@@H](C3)N4)ccc2cc1Cl [Second last compound of Method 2B, exo-7-(8-Aza-bicyclo[3.2.1]oct-3-yloxy)-3-chloro-chromen-2-one hydrochloric acid salt] | – | – | – | 9.23 | 7.85 | 7.27 | –
